From article PMC6114104 (International Journal for Parasitology: Drugs and Drug …, 2018)
Structures can show the parent of a compound that is named as a salt. Where two headings read alike, the source gives them in different places. Marks after values point to notes of the source that are not given here.

Legend:
[1] = system: BT cells (bovine turbinate cells); settings: uninfected BT cells, 3 days; 100 μM maximum concentration tested
[2] = system: S. neurona + GFP/FLUC parasites; assay: Luciferase-based S. neurona growth inhibition, EC50 determination; settings: for EC50: Sarcocystis neurona; for TI (TC50/EC50): ratio of BT cell TC50 to S. neurona EC50
T. gondii = settings: ref Dittmar et al., 2016; Wang et al., 2017; Bowden, unpublished data; cited from earlier work
Cryptosporidium parvum = settings: ref Bessoff et al., 2013; cited from earlier work
P. falciparum = settings: PubChem BioAssay; ref Wang et al., 2017; cited from earlier work
[3] = horses, ref DiMaio Knych et al., 2011, cited from earlier work
[4] = system: S. neurona + GFP/FLUC parasites; assay: microbe, parasite or virus in culture; type: cell-based, Sarcocystis neurona; settings: for Effect on S. neurona growth reflected by increases in FLUC activity: 10 μM HTS, not confirmed with secondary screening
S. neurona = settings: ref Gargala et al., 2009, cited from earlier work
S. neurona parasites = settings: ref Lindsay and Dubey, 1999; cited from earlier work
[5] = 96 h, read-out: EC50 in μM (95% CI)

| SMILES | EC50 [2, 5] [µM] | TI (TC50/EC50) [2] | TC50 [1] [µM] | other results |
| --- | --- | --- | --- | --- |
| O=C(c1ccc(F)cc1)C1CCN(CCn2c(=S)[nH]c3ccccc3c2=O)CC1 [Altanserin] | 3.5 | 29 | – | TC50 in μM [1]: >100 ^a μM |
| C[C@H]1[C@H](OC(=O)CCC(=O)O)O[C@@H]2O[C@@]3(C)CC[C@H]4[C@H](C)CC[C@@H]1[C@@]24OO3 [Artesunate] | 3.3 | 30 | >100 | – |
| CN1CCCC(n2nc(Cc3ccc(Cl)cc3)c3ccccc3c2=O)CC1 (stereo not drawn) [Azelastine HCl] | 2.5 | 11 | 28 | – |
| CCCCCCNC(=O)n1cc(F)c(=O)[nH]c1=O [Carmofur] | 0.73 | 137 | >100 | Activity against T. gondii (T. gondii): active; Activity against Cryptosporidium parvum (Cryptosporidium parvum): active; Activity against P. falciparum (P. falciparum): active |
| Oc1c(Cl)cc(Cl)c2cccnc12 [Chloroxine] | 2.5 | 6 | 16 | – |
| CC(C)/N=c1\cc2n(-c3ccc(Cl)cc3)c3ccccc3nc-2cc1Nc1ccc(Cl)cc1 [Clofazimine] | 3.7 | 27 | >100 | – |
| O=C1CN(/N=C/c2ccc(-c3ccc([N+](=O)[O-])cc3)o2)C(O)=N1 [Dantrolene] | 0.065 | 800 | 52 | EC50 ([2]; read-out: EC50 for S. neurona inhibition in ng/ml): 21.9 ng/mL; Peak plasma concentration ([3]; 500 mg capsules, converted): 85.95 nM; Peak plasma concentration ([3]; 500 mg capsules): 28.9 ± 21.6 ng/mL; Peak plasma concentration ([3]; 500 mg paste, converted): 112.4 nM; Peak plasma concentration ([3]; 500 mg paste): 37.8 ± 12.8 ng/mL; Time of peak plasma concentration after administration ([3]; both formulations (capsules and paste)): 3.8 h |
| O=c1c(-c2ccccc2)c1-c1ccccc1 [Diphenylcyclopropenone] | 2.5 | 8 | 19 | – |
| CCN(CC)C(=S)SSC(=S)N(CC)CC [Disulfiram] | 0.15 | – | 20 | – |
| O=c1[nH]cc(F)c(=O)[nH]1 [Fluorouracil] | 0.79 | 99 | 78 | Activity against T. gondii (T. gondii): active; Activity against Cryptosporidium parvum (Cryptosporidium parvum): active; Activity against P. falciparum (P. falciparum): active |
| Oc1c(Cl)cc(Cl)c(Cl)c1Cc1c(O)c(Cl)cc(Cl)c1Cl [Hexachlorophene] | 2.8 | 20 | 56 | – |
| Cl.O=C1[C@H]2CCCC[C@H]2C(=O)N1CCCCN1CCN(c2nsc3ccccc23)CC1 [Perospirone HCl] | – | 25 | 86 | – |
| OCCN1CCN(CCCN2c3ccccc3Sc3ccc(Cl)cc32)CC1 [Perphenazine] | 3.3 | 4 | 14 | – |
| COc1cc2nc(N3CCN(C(=O)c4ccco4)CC3)nc(N)c2cc1OC [Prazosin] | 6 | 8 | 45 | – |
| COc1cc(NC(C)CCCN)c2ncccc2c1 (stereo not drawn) [Primaquine phosphate] | 2.2 | 21 | 47 | – |
| CCc1nc(N)nc(N)c1-c1ccc(Cl)cc1 [Pyrimethamine] | 3.9 | 26 | >100 | FLUC activity of treated parasites ([2]; 10 μM, measured every 2 days over 10-day incubation): severely diminished FLUC activity; EC50 ([2]; read-out: EC50 of pyrimethamine (HTS validation, Fig. 2B)): 3.22 µM |
| CN1CCN(CC/C=C2/c3ccccc3Sc3ccc(S(=O)(=O)N(C)C)cc32)CC1 [Thiothixene] | 6.3 | 5 | 30 | – |
| CCCSc1ccc2nc(NC(=O)OC)[nH]c2c1 [albendazole] | – | – | – | Effect on S. neurona growth reflected by increases in FLUC activity [4]: growth-enhancing |
| CC(=O)Oc1ccccc1C(=O)Nc1ncc([N+](=O)[O-])s1 [nitazoxanide] | ~12 | – | – | Reported mean 90% inhibitory activity against S. neurona, in μM (S. neurona; approximate conversion): approximately 6.2 μM; Reported mean 90% inhibitory activity against S. neurona (S. neurona): 1.9 mg/L |
| c1ccc2[nH]c(-c3cscn3)nc2c1 [thibendazole] | – | – | – | Effect on S. neurona growth reflected by increases in FLUC activity [4]: growth-enhancing |
| COc1cc(Cc2cnc(N)nc2N)cc(OC)c1OC [trimethoprim] | ~19 | – | – | inhibition at 10 µM ([4]; Sarcocystis neurona, read-out: % inhibition of parasite growth in HTS): ≤ 80%; Reported EC50 for S. neurona parasites in vitro (S. neurona parasites): 2.5 µg/mL |
| Cc1ccc(-c2nc3ccc(C)cn3c2CC(=O)N(C)C)cc1 [zolpidem tartrate] | – | – | – | Effect on S. neurona growth reflected by increases in FLUC activity [4]: growth-enhancing |
